Assay [1] has as its system human pancreatic cancer (PANC1) cells. In words: MTT cell viability assay, PANC1. Type of assay: cell-based. The settings on record: 24 hours. How it is done: Cell lines and culture conditions: A human pancreatic cancer cell line PANC1 and human colon cancer cell line HCT116 were obtained from National Centre for Cell Science (NCCS), Pune, India. The PANC1 cells were sub-cultured in Dulbecco's Modified Eagle's Medium (DMEM) supplemented with 10% FBS at 5% C02 and 37° C. The HCT116 cells were sub-cultured in McCoy's 5A media supplemented with 10% FBS at 5% CO2 and 37° C. […] The cells were allowed to attach 70% to the surface prior to treatment. […] Suspensions were aspirated 10 times before treatment. Cells treated with vehicle control were used as a control. Cell viability assay: PANC1 and HCT116 cells ([…] cells/ml) were seeded in 96-well plates and exposed to different individual-drug treated groups with varying concentrations (0, 20, 40, 60, 80, 100, 120, 140, 160, 180 and 200 μM) for a period of 24 hours. The individual-treated groups include Group I: 5 Fluorouracil (5FU)-treated PANC1 and HCT116 cells; Group II: MET-treated PANC1 and HCT116 cells; Group III: EGCG-treated PANC1 and HCT116 cells and Group IV: 5FU+[…] PANC1 and HCT116 cells.
(Formazan colour is commonly taken as a measure of viable cells.)

For assay [2], the system named is C6 glioma cells. The assay can be described thus: Quantitative RT-PCR gene expression, C6. In kind it is cell-based, rat. Here is the method: (§1) Quantitative RT-PCR analysis of antioxidant enzymes (SOD and CAT), oxidative stress marker (Nrf-2), and apoptosis markers (BCL2 and Caspase-9). Total RNA from all experimental groups was isolated using RNA Express reagent (HiMedia, India) and the respective cDNAs were synthesized using a Hi-c-DNA Synthesis Kit (HiMedia, India). Quantitative RT-PCR was carried out using a CFX 96 thermocycler (Bio-Rad, Hercules, CA) and TB Green Premix Ex Taq 1 (Takara Bio, Otsu, Japan) to detect mRNA. Independent experiments were conducted in triplicate. The cycle threshold (Ct), representing a positive PCR result, is defined as the cycle number at which a sample's fluorescence intensity crossed the threshold automatically determined by the CFX 96.
(§2) The relative changes in gene expression were calculated with the 2^−ΔΔCt method, wherein ΔΔCt=(Cttarget gene−Ctβ-actin) sample−([…]) calibrator.
(§3) The qPCR analyses were performed to measure the expression levels of genes associated with anti-Warburg effect. The total RNA was extracted from the cell lysates and brain tissues of all the experimental groups using TRIZOL reagent (Takara Bio, Shiga, Japan). Quantitative RT-PCR was carried out using a CFX96 Real Time PCR Detection System (Bio-Rad, California, USA) and TB Green Premix Ex Taq I (Takara Bio, Shiga, Japan) to detect messenger ribonucleic acid (mRNA).
(§4) Independent experiments were conducted in triplicate. The relative changes in gene expression were calculated with the 2^−ΔΔCt method, where ΔΔCt=Sample (Cttarget gene−Ctβ-actin)−Calibrator (Cttarget gene−Ctβ-actin).

The subject of assay [3] is U87MG glioma cells. The assay can be described thus: Quantitative RT-PCR gene expression, U87MG. Type of assay: cell-based, human. Here is the method:
as §1, §2, §3, §4

In assay [4] the test system is U87MG human glioma cell line. The assay can be described thus: MTT cell viability assay, U87MG. In kind it is cell-based. The settings on record: for IC50: Homo sapiens, U-87 MG, individual drug, mean ± SD, no unit in table, test concentrations given in μM, read-out: Inhibitory Concentration at 50% (IC50) U87MG Cells; for IC50 / cell viability / anti-proliferative effect (MTT), in words: 24 hours; for cell viability / anti-proliferative effect (MTT), in words: U87MG. Here is the method:
Cell lines and culture conditions. A human glioma cell line, U87MG, a rat glioma cell line, C6, and normal HEK293T (Human Embryonic Kidney) cells were obtained from National Centre for Cell Science (NCCS), Pune, India. The cells were sub-cultured in Dulbecco's Modified Eagle's Medium (DMEM) supplemented with 10% FBS at 5% CO2 and 37° C. At 85% confluence, the cells were harvested using 0.25% trypsin and seeded in 25 cm^2 flasks, 96 well, and 6-well plates, according to the experiment being performed. The cells were allowed to attach 70% to the surface prior to treatment. A stock solution of all the drugs (10 mg/ml) was made in a vehicle and diluted to the required concentrations. Suspensions were aspirated 10 times before treatment. Cells treated with vehicle control were used as a control.
Cell viability assay. U87MG and C6 cells (5×10^3 cells/ml) were seeded in 96-well plates and exposed to different individual-drug treated groups with varying concentrations (0, 10, 40, 80, 120, and 160 μM) for a period of 24 hours, whereas HEK293T cells (5×10^3 cells/ml) were seeded at the inhibitory concentration (IC) at 50% of drugs, either alone or in combination. The individual-treated groups include Group I: untreated control glioma cells; Group II: TMZ-treated glioma cells; Group III: MET-treated glioma cells; and Group IV: EGCG-treated glioma cells.
After a 24 hour treatment period, the cells were allowed to react with MTT for 4 hours in dark at 37° C. At the end of the incubation period, the dark purple formazan crystals formed were solubilized with DMSO and the absorbance was measured spectrophotometrically at 595 nm (Molecular Devices Spectra-Max M5, USA). The experiments were repeated at least three times. To determine the cell viability, the percentage of viability was calculated as follows:
% viability=[(Optical density {OD} of treated cells−OD of Blank)/(OD of control−OD of blank)]×100.
Calculation of IC50 value. The IC50 of a drug was determined using y=m(x)+c equation (where: ‘y’ & ‘x’ are the respective coordinates of y & x-axis, ‘m’ is the slope and ‘c’ is the constant) derived from the trendlines of each scattered plots MMT assay. […] The IC50 and IC25 were also calculated for the dual combinations. The IC50 for the triple combination was calculated by keeping the IC25 of the dual-combination constant, and the third drug was used in varying concentrations (0, 10, 40, 80, 120, and 160 μM) (Table 1).
Combination index of drugs. According to the Chou-Talalay method, The statistical Combination Index (CI) of the drugs was performed according to the Chou-Talay method (Ma et al, Stem Cell Reports, 2017 9(6):1948-1960) to determine whether various drug combinations were synergistic, additive, or antagonistic, as shown in Table 1. This was performed for Groups V-IX using the following formula:
Combination index (CI) of Drugs 1 & 2=(IC50 of drug-1 in combination/IC50 of drug-1 individually)+(IC50 of drug-2 in combination/IC50 of drug-2 individually).

With `CN(C)C(=N)N=C(N)N.Cl` [MET, 3-(diaminomethylidene)-1,1-dimethylguanidine; hydrochloride], in assay [1], the “cell viability (MTT), in words” value is recorded as “reduction in cell viability in a dose-dependent fashion”. In addition, in assay [2], the “mRNA expression levels of BCL2” value is “not found to be statistically significant”, the “mRNA expression levels of Caspase-9” value is “not found to be statistically significant” and the “mRNA transcript levels of Nrf-2” value is recorded as “did not have any significant effect”. Besides, in assay [3], the “mRNA expression levels of BCL2” value is on record as “not found to be statistically significant”, the “mRNA expression levels of Caspase-9” value is reported as “not found to be statistically significant” and the “mRNA transcript levels of Nrf-2” value was “did not have any significant effect”. In assay [4], the IC50 was determined as 80 ± 1.19 µM and the “cell viability / anti-proliferative effect (MTT), in words” value is “reduction in cell viability in a dose-dependent fashion”. Besides, the “IC25 U87MG” value in assay [4] (as used in the triple combination for CI) turned out to be 34.03 µM.

In the case of `O=C(O[C@@H]1Cc2c(O)cc(O)cc2O[C@@H]1c1cc(O)c(O)c(O)c1)c1cc(O)c(O)c(O)c1` [EGCG, [(2R,3R)-5,7-dihydroxy-2-(3,4,5-trihydroxyphenyl)-3,4-dihydro-2H-chromen-3-yl] 3,4,5-trihydroxybenzoate], the “cell viability (MTT), in words” value in assay [1] is given as “reduction in cell viability in a dose-dependent fashion”. Also, in assay [2], the “mRNA expression levels of BCL2” value was “not found to be statistically significant”; the “mRNA expression levels of Caspase-9” value is on record as “not found to be statistically significant”; the “mRNA transcript levels of Nrf-2” value is given as “did not have any significant effect”; the “mRNA transcripts of the antioxidant genes (SOD and CAT)” value is listed as “significant up-regulation”. In addition, in assay [3], the “mRNA expression levels of BCL2” value is given as “not found to be statistically significant”; the “mRNA expression levels of Caspase-9” value is “not found to be statistically significant”; the “mRNA transcript levels of Nrf-2” value is listed as “did not have any significant effect”; the “mRNA transcripts of the antioxidant genes (SOD and CAT)” value is “significant up-regulation”. Besides, in assay [4], the IC50 worked out at 94 ± 1.39 µM and the “cell viability / anti-proliferative effect (MTT), in words” value is given as “reduction in cell viability in a dose-dependent fashion”. Further, the “cell viability / anti-proliferative effect (MTT), in words” value in assay [4] (listed as ECGC) is “did not result in significant inhibitory effects”.

Values taken from patent US20250275938A1, “COMPOSITIONS AND METHODS FOR TREATMENT OF CANCER” (SCIROSBIO (FZC), priority 2022, published 2025).
